The target in assay [1] is T1, MOR-1 (Mus musculus, UniProt P42866).
T1 construct: expressed in transfected cells; host or cells: CHO
Description: Competition binding against 125I-IBNtxA in MOR-1/CHO membranes.

A further assay addresses T2, KOR-1 (Mus musculus, UniProt P33534).
T2 construct: expressed in transfected cells; host or cells: CHO
Description: Competition binding against 125I-IBNtxA in KOR-1/CHO membranes. The conditions noted are these: 125I-IBNtxA (0.1 nM), CHO membranes, cloned mouse receptor; read-out: Affinity (Ki nM) KOR-1.

For assay [2], the target named is T3, DOR-1 (Mus musculus, UniProt P32300).
T3 construct: expressed in transfected cells; host or cells: CHO
Description: Competition binding against 125I-IBNtxA in DOR-1/CHO membranes.

The next assay has as its system CD1 mice. Description: Radiant heat tail flick analgesia, sc, CD1 mice. Format: in vivo. Conditions: Mus musculus, 0.25 h, ED50, cumulative dose-response, tail flick 15 min after sc dose.
The target in assay [3] is T1, MOR-1. Description: [35S]GTPγS functional assay, MOR-1 transfected cell membranes. Format: biochemical. Details: Emax: dose or concentration left out as unconfirmed. The conditions noted are these: for EC50: agonist stimulation of [35S]GTPγS binding, read-out: MOR-1 EC50; for Emax: read-out: MOR-1 Emax (%). Background: GTPγS is a poorly hydrolysed GTP analogue; its binding reports G protein activation.

Assay [4] addresses T3, DOR-1. Nature of the assay: [35S]GTPγS functional assay, DOR-1 transfected cell membranes. Format: biochemical. The conditions noted are these: antagonism of 100 nM DPDPE; read-out: DOR-1 IC50.
[5] abbreviates: 125I-IBNtxA (0.1 nM), CHO membranes, cloned mouse receptor, read-out: Affinity (Ki nM) DOR-1.

Each structure is given as a SMILES string. Read-outs that look alike come from different tables or passages of the source. Where only a bound is given, the exact number is not on record here.

In the case of `CC[C@@H]1CN2CC[C@]3(Nc4cccc(OC(C)=O)c4C3=O)C2C[C@@H]1/C(=C\OC)C(=O)OC` (stereo partly drawn) [VM1510, (E)-methyl 2-((1'S,6'S,7'S)-4-acetoxy-6′-ethyl-3-oxo-3′,5′,6′,7′,8′,8a′-hexahydro-2′H-spiro[indoline-2,1′-indolizine]-7′-yl)-3-methoxyacrylate], the Ki (usually the equilibrium dissociation constant of an inhibitor or competing ligand from its target) on MOR-1 [1] amounted to 2.5 nM; at KOR-1, 31 nM; at DOR-1 [2] (setting [5]) it was 20 nM. Also, it took a dose of 0.38 mg/kg to reach the 50% effect level in the assay on CD1 mice (ED50). Further, the EC50 (commonly the concentration giving half of the maximal effect) on MOR-1 [3] was found to be 3.9 nM. Moreover, the Emax (in general, the size of the effect at its maximum, as opposed to the concentration needed) at MOR-1 [3] amounted to 120%.

Take `CC[C@@H]1CN2CC[C@@]3(O)C(=Nc4ccc(-c5ccoc5)c(OC)c43)C2C[C@@H]1/C(=C\OC)C(=O)OC` (stereo partly drawn) [VM1523, Methyl (E)-2-((2S,3S,7aS)-3-ethyl-9-(furan-3-yl)-7a-hydroxy-8-methoxy-1,2,3,4,6,7,7a,12b-octahydroindolo[2,3-a]quinolizin-2-yl)-3-methoxyacrylate]: the Ki is 36 nM at MOR-1 [1], 36 nM at KOR-1 and 109 nM on DOR-1 [2] (setting [5]).

Consider `CC[C@@H]1CN2CC[C@@]3(OC)C(=Nc4cccc(OC)c43)[C@@H]2C[C@@H]1/C(=C\OC)C(=O)OC` [VM1537, Methyl (E)-2-((2S,3S,7aS,12bS)-3-ethyl-7a,8-dimethoxy-1,2,3,4,6,7,7a,12b-octahydroindolo[2,3-a]quinolizin-2-yl)-3-methoxyacrylate], for which the Ki on MOR-1 [1] came out at 190 nM; at KOR-1, 90 nM; at DOR-1 [2] (setting [5]), 997 nM.

`CC[C@@H]1CN2CC[C@@]3(N4CCCCC4)C(=Nc4cccc(OC)c43)[C@@H]2C[C@@H]1/C(=C\OC)C(=O)OC` [VM1526, Methyl (E)-2-((2S,3S,7aS,12bS)-3-ethyl-8-methoxy-7a-(piperidin-1-yl)-1,2,3,4,6,7,7a,12b-octahydroindolo[2,3-a]quinolizin-2-yl)-3-methoxyacrylate]: the Ki on MOR-1 [1] was found to be 247 nM; at KOR-1, 72 nM; on DOR-1 [2] (setting [5]) it was 369 nM.

`CC[C@@H]1CN2CCC3(Nc4ccc(Cl)c(OC)c4C3=O)C2C[C@@H]1/C(=C\OC)C(=O)OC` (stereo partly drawn) [VM1516, Methyl (E)-2-((6'S,7'S)-5-chloro-6′-ethyl-4-methoxy-3-oxo-2′,3′,6′,7′,8′,8a′-hexahydro-5′H-spiro[indoline-2,1′-indolizin]-7′-yl)-3-methoxyacrylate]: the results for the Ki on MOR-1 [1], at KOR-1 and on DOR-1 [2] (setting [5]) were 0.41 nM, 12 nM and 2.1 nM, respectively.

`CC[C@@H]1CN2CCc3c([nH]c4cccc(OC)c34)[C@@H]2C[C@@H]1[C@@H](C)COC` [VM1536, (2S,3S,12bS)-3-ethyl-8-methoxy-2-((R)-1-methoxypropan-2-yl)-1,2,3,4,6,7,12,12b-octahydroindolo[2,3-a]quinolizine] displayed a Ki at MOR-1 [1] of over 1000 nM.

In turn, `CC[C@@H]1CN2CCc3c([nH]c4cccc(OC)c34)[C@@H]2C[C@@H]1/C(=C\OC)CO` [VM1534, (E)-2-((2S,3S,12bS)-3-ethyl-8-methoxy-1,2,3,4,6,7,12,12b-octahydroindolo[2,3-a]quinolizin-2-yl)-3-methoxyprop-2-en-1-ol] had a Ki on MOR-1 [1] of over 1000 nM.

With `COC(=O)CC1CCN2CC[C@@]3(O)C(=Nc4cccc(OC)c43)C2C1` (stereo partly drawn) [VM1531, Methyl 2-((7aS)-7a-hydroxy-8-methoxy-1,2,3,4,6,7,7a,12b-octahydroindolo[2,3-a]quinolizin-2-yl)acetate], the Ki on MOR-1 [1], on KOR-1 and on DOR-1 [2] (setting [5]) was over 1000 nM each time.

For `CC[C@@H]1CN2CCc3c([nH]c4ccc(Br)c(OC)c34)C2C[C@@H]1/C(=C\OC)C(=O)OC` (stereo partly drawn) [VM1517, Methyl (E)-2-((2S,3S)-9-bromo-3-ethyl-8-methoxy-1,2,3,4,6,7,12,12b-octahydroindolo[2,3-a]quinolizin-2-yl)-3-methoxyacrylate], the Ki at MOR-1 [1] stood at 104 nM; on KOR-1 it was 195 nM; at DOR-1 [2] (setting [5]), 847 nM.

Turning to `CC[C@@H]1CN2CCc3c(n(Cc4ccccc4)c4cccc(OC)c34)[C@@H]2C[C@@H]1/C(=C\OC)C(=O)OC` [VM1533, Methyl (E)-2-((2S,3S,12bS)-12-benzyl-3-ethyl-8-methoxy-1,2,3,4,6,7,12,12b-octahydroindolo[2,3-a]quinolizin-2-yl)-3-methoxyacrylate], the Ki on MOR-1 [1] is 93 nM; at KOR-1, 395 nM; on DOR-1 [2] (setting [5]), over 1000 nM.

For `CC[C@@H]1CN2CC[C@@]3(C(=O)c4c(OC)cccc4N3Cc3ccccc3)C2C[C@@H]1/C(=C\OC)C(=O)OC` (stereo partly drawn) [VM1505, (E)-methyl 2-((1'S,6'S,7'S)-1-benzyl-6′-ethyl-4-methoxy-3-oxo-3′,5′,6′,7′,8′,8a′-hexahydro-2′H-spiro[indoline-2,1′-indolizine]-7′-yl)-3-methoxyacrylate], the values for the Ki at MOR-1 [1], at KOR-1 and on DOR-1 [2] (setting [5]) were 249 nM, 136 nM and 258 nM, respectively.

For the compound `CC[C@@H]1CN2CCc3c(n(C)c4cccc(OC)c34)[C@@H]2C[C@@H]1/C(=C\OC)C(=O)OC` [VM1541, Methyl (E)-2-((2S,3S,12bS)-3-ethyl-8-methoxy-12-methyl-1,2,3,4,6,7,12,12b-octahydroindolo[2,3-a]quinolizin-2-yl)-3-methoxyacrylate], the results for the Ki on MOR-1 [1], on KOR-1 and on DOR-1 [2] (setting [5]) were 163 nM, 143 nM and over 1000 nM, respectively.

As for `CC[C@@H]1CN2CCc3c([nH]c4ccc(-c5ccccc5)c(OC)c34)C2C[C@@H]1/C(=C\OC)C(=O)OC` (stereo partly drawn) [VM1521, Methyl (E)-2-((2S,3S)-3-ethyl-9-(phenyl)-8-methoxy-1,2,3,4,6,7,12,12b-octahydroindolo[2,3-a]quinolizin-2-yl)-3-methoxyacrylate], the Ki at MOR-1 [1] was 364 nM; on KOR-1, 204 nM; at DOR-1 [2] (setting [5]), over 1000 nM.

Turning to `CC[C@@H]1CN2CC[C@]3(Nc4cccc(O)c4C3=O)C2C[C@@H]1/C(=C\OC)C(=O)OC` (stereo partly drawn) [VM1507, (E)-methyl 2-((1'S,6'S,7'S)-6′-ethyl-4-hydroxy-3-oxo-3′,5′,6′,7′,8′,8a′-hexahydro-2′H-spiro[indoline-2,1′-indolizine]-7′-yl)-3-methoxyacrylate], the Ki at MOR-1 [1] was found to be 1.4 nM; at KOR-1 it was 170 nM; at DOR-1 [2] (setting [5]) it was 6.1 nM. For the same compound, the ED50 (in general, the dose that gives a 50% effect, or the effect in half of the subjects) in the assay on CD1 mice turned out to be 0.18 mg/kg. Besides, the EC50 at MOR-1 [3] amounted to 2 nM. Besides, at MOR-1 [3], the Emax worked out at 124%. The IC50 (in general, the concentration that inhibits the measured activity by half) on DOR-1 [4] worked out at 293 nM.

In the case of `CC[C@@H]1CN2CC[C@@]3(C(=O)c4c(OC)cccc4N3C)C2C[C@@H]1/C(=C\OC)C(=O)OC` (stereo partly drawn) [VM1503, (E)-methyl 2-((1'S,6'S,7'S)-6′-ethyl-4-methoxy-1-methyl-3-oxo-3′,5′,6′,7′,8′,8a′-hexahydro-2′H-spiro[indoline-2,1′-indolizine]-7′-yl)-3-methoxyacrylate], the Ki was 375 nM at MOR-1 [1], over 1000 nM on KOR-1 and over 1000 nM at DOR-1 [2] (setting [5]).

Take `CC[C@@H]1CN2CCc3c([nH]c4ccc(-c5ccoc5)c(OC)c34)C2C[C@@H]1/C(=C\OC)C(=O)OC` (stereo partly drawn) [VM1519, Methyl (E)-2-((2S,3S)-3-ethyl-9-(furan-3-yl)-8-methoxy-1,2,3,4,6,7,12,12b-octahydroindolo[2,3-a]quinolizin-2-yl)-3-methoxyacrylate]: the Ki at MOR-1 [1] came to 281 nM; at KOR-1, 129 nM; at DOR-1 [2] (setting [5]), 653 nM.

As to `Oc1ccc2c3c1O[C@H]1c4[nH]c5ccccc5c4C[C@@]4(O)[C@@H](C2)N(CC2CC2)CC[C@]314` [NTI, Naltrindole, reference compound], the affinity at DOR-1 [2] corresponds to a Ki of 0.46 nM. The IC50 on DOR-1 [4] was 0.72 nM.

As to `CC[C@@H]1CN2CC[C@@]3(O)C(=Nc4c(-c5ccoc5)ccc(OC)c43)C2C[C@@H]1/C(=C\OC)C(=O)OC` (stereo partly drawn) [VM1524, Methyl (E)-2-((2S,3S,7aS)-3-ethyl-11-(furan-3-yl)-7a-hydroxy-8-methoxy-1,2,3,4,6,7,7a,12b-octahydroindolo[2,3-a]quinolizin-2-yl)-3-methoxyacrylate], the Ki is 117 nM at MOR-1 [1], 338 nM on KOR-1 and over 1000 nM at DOR-1 [2] (setting [5]).

Regarding `CC[C@@H]1CN2CCc3c([nH]c4c(-c5ccoc5)ccc(OC)c34)C2C[C@@H]1/C(=C\OC)C(=O)OC` (stereo partly drawn) [VM1520, Methyl (E)-2-((2S,3S)-3-ethyl-11-(furan-3-yl)-8-methoxy-1,2,3,4,6,7,12,12b-octahydroindolo[2,3-a]quinolizin-2-yl)-3-methoxyacrylate], the Ki at MOR-1 [1] came to 278 nM; at KOR-1 it was 185 nM; at DOR-1 [2] (setting [5]), 617 nM.

Turning to `CC[C@@H]1CN2CCc3c([nH]c4cccc(-c5ccoc5)c34)[C@@H]2C[C@@H]1/C(=C\OC)C(=O)OC` [VM1539], the Ki on MOR-1 [1] (read-out: Affinity (Ki nM) MOR-1, 125I-IBNtxA (0.1 nM), CHO membranes, cloned mouse receptor) came out at 52 nM; at KOR-1, 14 nM; at DOR-1 [2] (setting [5]) it was 332 nM.

Compound `C=C(COC)[C@H]1C[C@H]2c3[nH]c4cccc(OC)c4c3CCN2C[C@H]1CC` [VM1535, (2S,3S,12bS)-3-ethyl-8-methoxy-2-(3-methoxyprop-1-en-2-yl)-1,2,3,4,6,7,12,12b-octahydroindolo[2,3-a]quinolizine] gave a Ki on MOR-1 [1] of over 1000 nM.

In the case of `CC[C@@H]1CN2CCC3c4c(cccc4OC)NC3[C@@H]2C[C@@H]1/C(=C\OC)C(=O)OC` (stereo partly drawn) [VM1542, Methyl (E)-2-((2S,3S,12bS)-3-ethyl-8-methoxy-1,2,3,4,6,7,7a,12,12a,12b-decahydroindolo[2,3-a]quinolizin-2-yl)-3-methoxyacrylate], the Ki amounted to 116 nM on MOR-1 [1], 329 nM on KOR-1 and 374 nM on DOR-1 [2] (setting [5]).

The record behind these values is patent US12617790B2, “Mitragynine analogs and uses thereof” (Memorial Sloan-Kettering Cancer Center, priority 2015, dated 2026).
